Reference: patent US20240261375A1, “PHARMACEUTICAL COMPOSITION FOR TREATING OR PREVENTING DISORDER ASSOCIATED WITH ADMINISTRATION OF ANTICANCER AGENT” (LTT BIO-PHARMA CO., LTD., priority 2021, published 2024)

Key:
[1] = tested on: intraepidermal nerve fiber of OXA-treated rats; experiment: Assessment of density of intraepidermal nerve fiber (PGP9.5 staining); type: in vivo, rat; settings: OXA+PC-SOD 1 mg/kg; FIG. 3
Protocol: Rat epidermis tissue was fixed with a 4% paraformaldehyde fixative and washed with PBS 24 hours later, and a frozen block was prepared. A frozen slice having a thickness of 50 μm was prepared from the prepared block by using Cryostat (CM3050S, Leica Biosystems), and a 0.2% Triton-X solution was added as permeabilization treatment to allow the mixture to react for 10 minutes. Nerve fiber was allowed to react with Anti-PGP9.5 antibody (Ultraclone Ltd.) at 4° C. overnight, then it was washed with PBST, and allowed to react with a secondary fluorescence antibody (Goat anti-Rabbit IgG Alexa Fluor 488, Invitrogen). After the reaction was done at room temperature for one hour, the nerve fiber was washed, rinsed, followed by dropwise addition of […] with DAPI H-1200 (Vector Laboratories), and enclosed, and two to three images of each sample captured at 200-fold magnification were saved (Scale bar=100 μm) by using a fluorescence microscope BZ-X800 (Keyence Corporation).

[2] = tested on: L5 DRG neurons of OXA-treated rats; experiment: Assessment of pathological damage to DRG (HE staining); type: in vivo, rat; settings: OXA+PC-SOD 1 mg/kg; FIG. 4
Text: A tissue of L5 DRG neuron was collected, stored in a 10% neutral buffered formalin solution, fixed, and then washed with PBS. The tissue was subjected to 70% ethanol substitution to prepare a paraffin block, and the block was thinly sliced and subjected to HE staining. The thickness of the thinly sliced sample block was from 2 to 3 μm. By using the prepared pathological sample slide, one to three images of each sample were captured at 200 and 400-fold magnifications by the optical microscope function of All-in-One Fluorescence Microscope (BZ-X800, Keyence Corporation). Multinucleation of the nucleolus of DRG neurons and abnormal morphology of the nucleolus were assessed as indicators of DRG neuron disorder (Scale bar=50 μm).

[3] = tested on: Large intestine cancer cells (colo320, HCT116); experiment: Proliferation of large intestine cancer cells (CCK-8); type: cell-based; settings: OXA dilutions + PC-SOD 50 μg/mL, 72 hours; FIG. 6
Protocol: Large intestine cancer cells (colo320, HCT116) were added to RPM1640 medium (Thermo Fisher Scientific Inc.) containing 10% fetal bovine serum and 100 units/mL penicillin-streptomycin (Gibco BRL) and cultured at 37° C. in a 5% CO2 incubator.
Cells were seeded on a 96-well plate at 10 000 cells/well and treated with a test solution 24 hours later. A test solution containing OXA alone was diluted 3-fold from 100 μM (10 levels) and added to a 96-well plate. A test solution containing OXA+PC-SOD was obtained by adding the same concentrations of OXA to PC-SOD (50 μg/mL) (n=3 per group). After cells were cultured for 72 hours, a CCK-8 solution was added in a volume of 1/10 of the solution in each well, and the mixture was measured at 490 nm of absorbance (Tecan, Tecan Japan). Data were expressed with mean±standard error (SEM). It should be noted that experiment conditions were allowed to be changed as required.

[4] = tested on: PC12 cells differentiated by NGF; experiment: Neurite retraction in NGF-differentiated PC12 cells caused by anticancer agents; type: cell-based, rat; settings: 24 hours; for neurite retraction caused by oxaliplatin: oxaliplatin 20 μM
Protocol: Rat adrenal gland pheochromocytoma-derived PC12 cells are known to be differentiated into neuron-like cells having neurites by nerve growth factor (NGF) and are widely used as a nerve cell model. To assess the neurite-protective action of PC-SOD, the effect of PC-SOD in neurite disorder caused by various anticancer agents was analyzed by using PC12 cells differentiated by NGF.
PC12 cells were seeded on a 24-well plate coated with collagen at 5 000 cells/well. […] The images of cells were captured by using a microscope (BZ-X800, Keyence Corporation), and the neurite lengths were measured by using an image analysis software ImageJ (NIH).
(§1) PC12 cells were seeded on a 24-well plate coated with collagen at 5 000 cells/well. […] After neurite elongation, cells were cultured by using differentiation media each containing carboplatin (with a final concentration of 50 μM) alone or carboplatin and PC-SOD (with final concentrations of 10, 20, 50, and 100 μg/mL) for 24 hours. The images of cells were captured by using a microscope (BZ-X800, Keyence Corporation), and the neurite lengths were measured by using an image analysis software ImageJ (NIH).
as §1, with “containing paclitaxel (abbreviated as PTX in the figure of results) alone” for “containing carboplatin”, “of 0.1” for “of 50”, “μM)” for “μM) alone”, “or paclitaxel” for “or carboplatin”, “10,” for “10, 20,”

RAW cells = experiment: Active oxygen production in RAW cells (MitoSOX Red); type: cell-based; settings: gemcitabine, oxaliplatin, cisplatin or carboplatin with simultaneous PC-SOD, 16 hours; FIG. 13-2
Protocol: RAW cells were seeded on a 96-well plate for fluorescence at 20 000 cells/well (D-MEM high glucose medium containing 10% inactivated FBS). […] Sixteen hours later, cells were treated with an HBSS solution containing dissolved MitoSOX™ Red Mitochondrial Superoxide Indicator (Invitrogen™) for 30 minutes, and the medium was replaced with D-MEM high glucose medium containing 1% inactivated FBS. Active oxygen production in mitochondria was determined by measuring fluorescence (Ex 510 nm, Em 580 nm) by using a plate reader (Infinite M Plex, Tecan). Cells for four wells were analyzed for each group.

[5] = tested on: peripheral blood cells of CIS-treated rats; experiment: Assessment of myelosuppression caused by cisplatin (peripheral blood cell count); type: in vivo, rat; settings: CIS 3 mg/kg i.p. 8 doses, PC-SOD 1 mg/kg caudal vein, FIG. 14
Protocol: Six to eight-week-old male SD rats (from 200 to 400 g) were used. […] A total of eight doses were given with a regimen of twice weekly for four weeks (Days 1, 2, 7, 8, 13, 14, 19, and 20). A solvent for CIS, i.e., physiological saline, was similarly administered to a control group. […] Laboratory animals were divided into three groups: a control group, a CIS administration group, and a group receiving administration of CIS and PC-SOD 1 mg/kg (CIS+PC-SOD administration group) (n=6 per group). For an experiment of prevention, PC-SOD was administered into the caudal vein from five to 15 minutes after CIS administration in the CIS+PC-SOD administration group. A total of eight doses were given with a regimen of twice weekly for four weeks, (Days 1, 2, 7, 8, 13, 14, 19, and 20). A solvent for PC-SOD was similarly administered to the control group and the CIS administration group. Peripheral blood was collected from the rat caudal vein three days later, and peripheral blood was analyzed by using an automated blood cell counter (MEK-6458, Nihon Kohden Corporation).

lecithinized superoxide dismutase [PC-SOD]
decrease in density of intraepidermal nerve fiber caused by OXA [1]: a suppressive effect on the decrease in density of intraepidermal nerve fiber caused by OXA was observed | pathological damage to DRG caused by OXA (multinucleation and abnormal morphology of nucleoli) [2]: a suppressive effect on pathological damage to DRG caused by OXA was shown | influence on the anti-tumor effect of oxaliplatin (cell proliferation) [3]: did not affect the anti-tumor effect of oxaliplatin | neurite retraction caused by carboplatin ([4]; carboplatin 50 μM, PC-SOD 10, 20, 50, 100 μg/mL, FIG. 7-2): suppressed by simultaneous addition of PC-SOD dependently on the PC-SOD concentration | neurite retraction caused by cisplatin ([4]; cisplatin 33 μM, PC-SOD 10, 50, 100 μg/mL, FIG. 7-1): significantly suppressed as compared with addition of cisplatin alone | neurite retraction caused by oxaliplatin ([4]; PC-SOD 10, 50, 100 μg/mL, FIG. 7-1): markedly suppressed by simultaneous addition of PC-SOD dependently on the PC-SOD concentration | neurite retraction caused by oxaliplatin ([4]; test substance 50 μg/mL, FIG. 8): suppressed almost completely | neurite retraction caused by paclitaxel ([4]; paclitaxel 0.1 μM, PC-SOD 10, 50, 100 μg/mL, FIG. 7-3): suppressed by simultaneous addition of PC-SOD dependently on the PC-SOD concentration | anticancer agent-dependent production of active oxygen in RAW cells (RAW cells): significantly suppressed the anticancer agent-dependent production of active oxygen dependently on the concentration of PC-SOD | decrease in platelets (PLTs) caused by CIS [5]: decreases in WBCs and PLTs were suppressed | decrease in white blood cells (WBCs) caused by CIS [5]: decreases in WBCs and PLTs were suppressed
